According to US9540391B2, “Isomannide derivatives as inhibitors of soluble epoxide hydrolase” (SANOFI, priority 2013, dated 2017):
Structures can show the parent of a compound that is named as a salt.

Biological target: T1, recombinant sEH (Homo sapiens, UniProt P34913)
T1 construct: made in house; host or cells: Sf9 insect cells
T1 sequence (P34913 1-555): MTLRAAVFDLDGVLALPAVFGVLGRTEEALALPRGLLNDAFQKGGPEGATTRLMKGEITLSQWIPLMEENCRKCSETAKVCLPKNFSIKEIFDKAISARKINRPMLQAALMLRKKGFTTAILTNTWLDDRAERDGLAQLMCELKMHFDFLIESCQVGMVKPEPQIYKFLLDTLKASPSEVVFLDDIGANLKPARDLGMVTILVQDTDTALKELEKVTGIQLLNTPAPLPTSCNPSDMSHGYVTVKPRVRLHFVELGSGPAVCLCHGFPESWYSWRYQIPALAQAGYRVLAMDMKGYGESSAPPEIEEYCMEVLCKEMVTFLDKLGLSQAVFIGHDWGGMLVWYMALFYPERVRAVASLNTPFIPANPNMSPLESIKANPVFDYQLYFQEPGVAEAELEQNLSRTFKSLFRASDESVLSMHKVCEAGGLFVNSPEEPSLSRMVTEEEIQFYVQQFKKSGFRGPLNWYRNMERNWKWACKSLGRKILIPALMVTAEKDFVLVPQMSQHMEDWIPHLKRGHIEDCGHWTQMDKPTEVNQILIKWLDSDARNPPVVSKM
Assay: biochemical screening assay for inhibition of soluble epoxide hydrolase (fluorometric, Phome substrate)
Description: The ability of the compounds of the formula I to inhibit soluble epoxide hydrolase can be determined as follows:
Compounds were tested in a biochemical screening assay using recombinant sEH purified from Sf9 insect cells and an artificial substrate, (3-phenyl-oxiranyl)-acetic acid cyano-(6-methoxy-naphtalen-2-yl)-methyl ester, Phome. The biochemical assay was performed in analogy to a fluorometric method described in the literature (P. D. Jones et al., Anal. Biochem. 2005, 343, 66-75). The assay principle bases on the sEH-catalyzed hydrolysis of an artificial α-cyano-ester substrate. 0-deacetylation liberates a cyanohydrin intermediate that rapidly decomposes to the highly fluorescent 6-methoxy-2-naphtaldehyde. To discriminate sample autofluorescence, the assay was carried out as a kinetic measurement with two time points. The first measurement is performed immediately before addition of the substrate and the second measurement is done after completion of the assay. The assay format is either in 96- or in 384-well format. Details of the assay using a 96-well plate format are described below. 40 μL recombinant sEH enzyme and 5 μL test compound are pre-incubated for 15 minutes at 30° C. Following pre-incubation, the reaction is started by addition of 5 μL Phome. The assay mixture containing 2 nM final sEH concentration, test compound ranging in a concentration from 0.0001-10 μM and 5 μM Phome is incubated for 60 minutes at 30° C.
Fluorescence can be measured with any suitable detector for instance a TECAN Safire or Tecan Ultra at […]. % inhibition of recombinant sEH activity is used for calculation of corresponding IC50 values as illustrated and described in the examples.
The NCBI gene bank reference sequence with the accession number NM_001979 for EPHX2/sEH was applied for recombinant protein production:
The following commercially available materials have been used: • Incubation reagent: 25 mM Hepes (Sigma-Aldrich, Cat. No H-3375), 0.01% bovine albumin (Sigma-Aldrich Cat. No PA9205) • Substrate: 3-Phenyl-oxiranyl)-acetic acid cyano-(6-methoxy-naphtalen-2-yl)-methyl ester, Phome (Biozol Cat. No 10003134) • Microtiter plates: 96-well plates (Greiner Cat. No 655180; Costar Cat. No 3915)

Compound | IC50
Cc1ncccc1O[C@H]1CO[C@H]2[C@@H]1OC[C@@H]2NC(=O)NCCc1ccc(S(C)(=O)=O)cc1 [Example 223, 1-[2-(4-Methanesulfonyl-phenyl)-ethyl]-3-[(3S,3aR,6S,6aS)-6-(2-methyl-pyridin-3-yloxy)-hexahydro-furo[3,2-b]furan-3-yl]-urea] | 262 nM
O=C(NCCc1cccs1)N[C@H]1CO[C@@H]2[C@@H](CCc3ccccc3)CO[C@@H]21 [Example 370, 1-((3S,3aR,6S,6aR)-6-Phenethyl-hexahydro-furo[3,2-b]furan-3-yl)-3-(2-thiophen-2-yl-ethyl)-urea] | 43 nM
O=C(NC1CCCCC1)N[C@H]1CO[C@H]2[C@@H]1OC[C@@H]2Oc1ccc(N2CCOCC2)nc1 [Example 73, 1-Cyclohexyl-3-[(3S,3aR,6S,6aS)-6-(6-morpholin-4-yl-pyridin-3-yloxy)-hexahydro-furo[3,2-b]furan-3-yl]-urea] | 4 nM
N#CCc1cccc(O[C@H]2CO[C@H]3[C@@H]2OC[C@@H]3NC(=O)NC2CCCCC2)c1 [Example 117, 1-[(3S,3aR,6S,6aS)-6-(3-Cyano-methyl-phenoxy)-hexahydro-furo-[3,2-b]furan-3-yl]-3-cyclohexyl-urea] | 5 nM
CCC(O)(CC)c1cncc(O[C@H]2CO[C@H]3[C@@H]2OC[C@@H]3NC(=O)NC2CCCCC2)c1 [Example 69, 1-cyclohexyl-3-{(3S,3aR,6S,6aS)-6-[5-(1-ethyl-1-hydroxy-propyl)-pyridin-3-yloxy]-hexahydro-furo[3,2-b]furan-3-yl}-urea] | 2 nM
Cc1ncccc1O[C@H]1CO[C@H]2[C@@H]1OC[C@@H]2NC(=O)NC(C)c1c(C)nn(C)c1C (stereo partly drawn) [Example 234, 1-[(3S,3aR,6S,6aS)-6-(2-Methyl-pyridin-3-yloxy)-hexahydro-furo[3,2-b]furan-3-yl]-3-[1-(1,3,5-trimethyl-1H-pyrazol-4-yl)-ethyl]-urea] | 172 nM
COCC1(NC(=O)N[C@H]2CO[C@H]3[C@@H]2OC[C@@H]3Oc2cccnc2C)CCCC1 [Example 210, 1-(1-Methoxymethyl-cyclopentyl)-3-[(3S,3aR,6S,6aS)-6-(2-methyl-pyridin-3-yloxy)-hexahydro-furo[3,2-b]furan-3-yl]-urea] | 144 nM
COC(=O)c1cccc(NC(=O)NC2COC3C(C#Cc4ccsc4)COC23)c1 [Example 309, 3-[3-((3S,3aR,6S,6aR)-6-Thio-phen-3-ylethynyl-hexahydro-furo[3,2-b]furan-3-yl)-ureido]-benzoic acid methyl ester] | 16 nM
Cc1ccnc(C)c1O[C@H]1CO[C@H]2[C@@H]1OC[C@@H]2NC(=O)NC1CCCCC1 [Example 37, 1-Cyclohexyl-3-[(3S,3aR,6S,6aS)-6-(2,4-dimethyl-pyridin-3-yloxy)-hexa-hydro-furo[3,2-b]furan-3-yl]-urea] | 1 nM
Cc1cc(C)nc(S[C@H]2CO[C@H]3[C@@H]2OC[C@@H]3NC(=O)NC2CCCCC2)n1 [Example 47, 1-Cyclohexyl-3-[(3S,3aR,6S,6aS)-6-(4,6-dimethyl-pyrimidin-2-ylsulfanyl)-hexahydro-furo[3,2-b]furan-3-yl]-urea] | 51 nM
O=C(Nc1ccccc1)NC1COC2C(CCc3ccccc3)COC12 [Example 354, 1-[(3S,3aR,6R)-6-((S)-Phenethyl)-hexa-hydro-furo[3,2-b]furan-3-yl]-3-phenyl-urea] | 127 nM
Cc1ncccc1O[C@H]1CO[C@H]2[C@@H]1OC[C@@H]2NC(=O)NC1CCCN(C(=O)c2ccc(F)cc2)C1 (stereo partly drawn) [Example 83, 1-[1-(4-fluoro-benzoyl)-piperidin-3-yl]-3-[(3S,3aR,6S,6aS)-6-(2-methyl-pyridin-3-yloxy)-hexahydro-furo[3,2-b]furan-3-yl]-urea] | 182 nM
O=C(NC1CCCCC1)N[C@H]1CO[C@H]2[C@@H]1OC[C@@H]2Oc1ccc(C(=O)O)cc1 [Example 11, 4-[(3S,3aS,6S,6aR)-6-(3-cyclohexyl-ureido)-hexahydro-furo[3,2-b]furan-3-yloxy]-benzoic acid] | 5 nM
O=C(NC1CCCCC1)N[C@H]1CO[C@H]2[C@@H]1OC[C@@H]2Nc1nccs1 [Example 13, 1-Cyclohexyl-3-[(3S,3aR,6S,6aR)-6-(thiazol-2-ylamino)-hexahydro-furo[3,2-b]furan-3-yl]-urea] | 167 nM
Cc1nc(-c2ccccc2O[C@H]2CO[C@H]3[C@@H]2OC[C@@H]3NC(=O)NC2CCCCC2)cs1 [Example 20, 1-Cyclohexyl-3-{(3S,3aR,6S,6aS)-6-[2-(2-methyl-thiazol-4-yl)-phenoxy]-hexahydro-furo[3,2-b]furan-3-yl}-urea] | 2 nM
O=C(NC1CCCCC1)N[C@H]1CO[C@H]2[C@@H]1OC[C@@H]2Oc1cccc(CNC2CC2)c1 [Example 128, 1-Cyclohexyl-3-[(3S,3aR,6S,6aS)-6-(3-cyclopropylaminomethyl-phenoxy)-hexahydro-furo[3,2-b]furan-3-yl]-urea; trifluoroacetate] | 10 nM
Cc1cccc(CNC(=O)NC2COC3C(C#Cc4ccccc4)COC23)c1 [Example 291, 1-(3-Methyl-benzyl)-3-[(3S,3aR,6R)-6-((S)-phenylethynyl)-hexahydro-furo[3,2-b]furan-3-yl]-urea] | 37 nM
O=C(Nc1ccc(C(F)(F)F)cc1)NC1COC2C(C=Cc3ccsc3)COC12 [Example 342, 1-[(3S,3aR,6S,6aR)-6-((Z)-2-Thio-phen-3-yl-vinyl)-hexahydro-furo[3,2-b]furan-3-yl]-3-(4-trifluoromethyl-phenyl)-urea] | 17 nM
O=C(NC1CCCCC1)N[C@H]1CO[C@H]2[C@@H]1OC[C@@H]2Oc1ccc(C(F)(F)F)nc1 [Example 42, 1-Cyclohexyl-3-[(3S,3aR,6S,6aS)-6-(6-trifluoromethyl-pyridin-3-yloxy)-hexahydro-furo[3,2-b]furan-3-yl]-urea] | 47 nM
CCCCOc1ccc(NC(=O)NC2COC3C(C#Cc4ccccc4)COC23)cc1 [Example 283, 1-(4-Butoxy-phenyl)-3-[(3S,3aR,6R)-6-((S)-phenylethynyl)-hexahydro-furo[3,2-b]furan-3-yl]-urea] | 70 nM
Cc1ncccc1O[C@H]1CO[C@H]2[C@@H]1OC[C@@H]2NC(=O)NC1CCC(C(C)(C)O)CC1 (stereo partly drawn) [Example 280, 1-[4-(1-Hydroxy-1-methyl-ethyl)-cyclohexyl]-3-[(3S,3aR,6S,6aS)-6-(2-methyl-pyridin-3-yloxy)-hexa-hydro-furo[3,2-b]furan-3-yl]-urea] | 12 nM
O=C(NC1CCCCC1)N[C@H]1CO[C@H]2[C@@H]1OC[C@@H]2Oc1cccc2c1CCC2=O [Example 144, 1-Cyclohexyl-3-[(3S,3aR,6S,6aS)-6-(1-oxo-indan-4-yloxy)-hexahydro-furo[3,2-b]furan-3-yl]-urea] | 1 nM
C[C@@H](NC(=O)N[C@H]1CO[C@H]2[C@@H]1OC[C@@H]2Oc1ccc(F)cc1)c1ccccc1 [Example 162, 1-[(3S,3aR,6S,6aS)-6-(4-Fluoro-phenoxy)-hexahydro-furo[3,2-b]furan-3-yl]-3-((R)-1-phenyl-ethyl)-urea] | 39 nM
O=C(NC1CCCCC1)N[C@H]1CO[C@H]2[C@@H]1OC[C@@H]2Sc1ccc(F)cc1 [Example 15, 1-Cyclohexyl-3-[(3S,3aR,6S,6aS)-6-(4-fluoro-phenylsulfanyl)-hexahydro-furo[3,2-b]furan-3-yl]-urea] | < 1 nM
Cc1ncccc1O[C@H]1CO[C@H]2[C@@H]1OC[C@@H]2NC(=O)N[C@H]1C[C@H]2C[C@@H]([C@@H]1C)C2(C)C [Example 186, 1-[(3S,3aR,6S,6aS)-6-(2-Methyl-pyridin-3-yloxy)-hexahydro-furo[3,2-b]furan-3-yl]-3-((1S,2S,3S,5R)-2,6,6-trimethyl-bicyclo[3.1.1]hept-3-yl)-urea] | 2 nM
C[C@H](NC(=O)N[C@H]1CO[C@H]2[C@@H]1OC[C@@H]2Oc1ccc(F)cc1)c1ccc(F)cc1 [Example 160, 1-[(3S,3aR,6S,6aS)-6-(4-Fluoro-phenoxy)-hexahydro-furo[3,2-b]furan-3-yl]-3-[(S)-1-(4-fluoro-phenyl)-ethyl]-urea] | 31 nM
